In the Kinase Knowledgebase extract (Sharma et al. 2016):

Biological target: MAPK14 (human) (UniProt Q16539)
Test: Inhibition of MAPK14 Kinase Activity
Conditions: for inhibition: concentration not given here

MAPK14 (human), sequence (Q16539 whole entry, looked up): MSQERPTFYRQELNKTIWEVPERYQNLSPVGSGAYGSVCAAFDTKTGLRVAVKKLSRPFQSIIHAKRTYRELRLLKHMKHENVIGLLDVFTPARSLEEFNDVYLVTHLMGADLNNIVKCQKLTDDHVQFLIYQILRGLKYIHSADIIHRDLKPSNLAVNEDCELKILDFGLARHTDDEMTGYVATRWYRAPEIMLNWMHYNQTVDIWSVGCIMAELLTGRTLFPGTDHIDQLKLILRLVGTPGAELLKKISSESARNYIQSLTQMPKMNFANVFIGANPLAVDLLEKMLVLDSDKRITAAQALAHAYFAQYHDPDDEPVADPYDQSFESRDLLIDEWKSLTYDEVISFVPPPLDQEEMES

IC50	inhibition	SMILES
< 5 µM		COC(=O)N1CCN(C(=O)c2cc(C(C)(C)C)sc2NC(=O)Nc2cccc(Cl)c2Cl)CC1
< 5 µM		CC(C)(C)c1cc(C(=O)N2CCNC(=O)CC2)c(NC(=O)Nc2ccccc2C(C)(C)C)s1
	76 to 100%	Cc1cccc(NC(=O)Nc2sc(C(C)(C)C)cc2C(=O)N2CCNS(=O)(=O)CC2)c1
< 5 µM		Cc1cccc(NC(=O)Nc2sc(C(C)(C)C)cc2C(=O)N2CCC(=O)N(CCN(C)C)CC2)c1Cl
	26 to 50%	CC(C)(C)c1cc(C(=O)N2CCNS(=O)(=O)CC2)c(NC(=O)NC2(c3ccccc3)CC2)s1
< 5 µM		CC(C)(C)c1cc(C(=O)N2CCN(CC(O)CO)C(=O)C2(C)C)c(NC(=O)Nc2cccc(Cl)c2Cl)s1 (stereo not given)
< 5 µM		CC(C)(C)c1cc(C(=O)N2CCNC(=O)C2(C)CCO)c(NC(=O)Nc2cccc(Cl)c2Cl)s1 (stereo not given)
< 5 µM		CCC1(C)C(=O)N(CC(=O)N2CCN(C)CC2)CCN1C(=O)c1cc(C(C)(C)C)sc1NC(=O)Nc1cccc(Cl)c1Cl (stereo not given)
	76 to 100%	CC(C)(C)c1cc(C(=O)N2CCC(=O)N(CCC(N)=O)CC2)c(NC(=O)Nc2cccc(Cl)c2Cl)s1
< 5 µM		Cc1ccccc1NC(=O)Nc1sc(C(C)(C)C)cc1C(=O)N1CCC(=O)N(CCN(C)C)CC1
< 5 µM		CC1CC(=O)NCCN1C(=O)c1cc(C(C)(C)C)sc1NC(=O)Nc1cccc(Cl)c1Cl (stereo not given)
< 5 µM		CC(C)(C)OC(=O)N1CCN(C(=O)c2cc(C(C)(C)C)sc2NC(=O)Nc2cccc(Cl)c2Cl)CC1(C)C
< 5 µM		COC(=O)CC1(C)C(=O)NCCN1C(=O)c1cc(C(C)(C)C)sc1NC(=O)Nc1cccc(Cl)c1Cl (stereo not given)
< 5 µM		CCC1(C)C(=O)N(CC(=O)NCCN(C)C)CCN1C(=O)c1cc(C(C)(C)C)sc1NC(=O)Nc1ccc(F)c(Cl)c1Cl (stereo not given)
	26 to 50%	CC(C)(C)c1cc(C(=O)N2CCNS(=O)(=O)CC2)c(NC(=O)Nc2cnc(O)c3ccccc23)s1
< 5 µM		CCCNC(=O)CN1CCN(C(=O)c2cc(C(C)(C)C)sc2NC(=O)Nc2cccc(Cl)c2Cl)C(C)(C)C1=O
< 5 µM		CCC1(C)C(=O)N(C)CCN1C(=O)c1cc(C(C)(C)C)sc1NC(=O)Nc1cccc(Cl)c1Cl (stereo not given)

IC50	inhibition	SMILES
< 5 µM		CC(C)(C)c1cc(C(=O)N2CCNC(=O)C2(C)C)c(NC(=O)Nc2ccc(F)cc2Cl)s1
< 5 µM		COC(=O)CN1CCN(C(=O)c2cc(C(C)(C)C)sc2NC(=O)Nc2ccc(F)c(Cl)c2Cl)C(C)(C)C1=O
< 5 µM		CC(C)(C)c1cc(C(=O)N2CCNC(=O)C2(C)C)c(NC(=O)Nc2ccccc2Cl)s1
< 5 µM		CCc1ccccc1NC(=O)Nc1sc(C(C)(C)C)cc1C(=O)N1CCNC(=O)C1(C)C
< 5 µM		CC(C)(C)c1cc(C(=O)N2CCN(CCO)C(=O)C2(C)C)c(NC(=O)Nc2cccc(Cl)c2Cl)s1
< 5 µM		CC(=O)NC1CCCN(C(=O)c2cc(C(C)(C)C)sc2NC(=O)Nc2cccc(Cl)c2Cl)C1 (stereo not given)
< 5 µM		CC(C)(C)c1cc(C(=O)N2CCNC(=O)C2)c(NC(=O)Nc2cccc3c2OCO3)s1
< 5 µM		CCOC(=O)C(C)(CC)NC(=O)c1cc(C(C)(C)C)sc1NC(=O)Nc1cccc(Cl)c1Cl (stereo not given)
< 5 µM		COCOCCN1CCN(C(=O)c2cc(C(C)(C)C)sc2NC(=O)Nc2cccc(Cl)c2Cl)C(C)(C)C1=O
< 5 µM		CN(C)CCN1CCN(C(=O)c2cc(C(C)(C)C)sc2NC(=O)Nc2c(Cl)cncc2Cl)CCC1=O
< 5 µM		CC(C)(C)c1cc(C(=O)N2CCNC(=O)C23CC3)c(NC(=O)Nc2cccc(Cl)c2Cl)s1
< 5 µM		CN(C)CCNC(=O)CN1CCN(C(=O)c2cc(C(C)(C)C)sc2NC(=O)Nc2cccc(Cl)c2Cl)C(C)(C)C1=O
< 5 µM		CCC1(C)C(=O)N(CCN(C)C)CCN1C(=O)c1cc(C(C)(C)C)sc1NC(=O)Nc1ccc(F)cc1 (stereo not given)
< 5 µM		CC(C)(C)c1cc(C(=O)N2CCNC(=O)C2(C)C)c(NC(=O)Nc2cccc(Cl)c2Cl)[nH]1
< 5 µM		CC(C)(C)c1cc(C(=O)N2CCNC(=O)C2(C)CCO)c(NC(=O)Nc2cccc(Cl)c2Cl)[nH]1 (stereo not given)
< 5 µM		CC(C)(C)c1cc(C(=O)N2CCNC(=O)CC2)c(NC(=O)Nc2ccc3c(c2Cl)OCO3)s1
< 5 µM		CC(C)(C)c1cc(C(=O)N2CCNC(=O)C2)c(NC(=O)Nc2cccc(Cl)c2Cl)s1

The remaining lines, values behind:

SMILES	IC50	inhibition
COC(=O)CC1CC(=O)NCCN1C(=O)c1cc(C(C)(C)C)sc1NC(=O)Nc1cccc(Cl)c1Cl (stereo not given)	< 5 µM	
CCC1(C)C(=O)NCCN1C(=O)c1cc(C(C)(C)C)sc1NC(=O)Nc1ccc(F)c(Cl)c1Cl (stereo not given)	< 5 µM	
CCc1ccccc1NC(=O)Nc1sc(C(C)(C)C)cc1C(=O)N1CCC(=O)N(CCN(C)C)CC1	< 5 µM	
CN(C)CCNC(=O)CN1CCN(C(=O)c2cc(C(C)(C)C)sc2NC(=O)Nc2ccc(F)c(F)c2Cl)CCC1=O	< 5 µM	
CN(C)CCN1CCN(C(=O)c2cc(C(C)(C)C)sc2NC(=O)Nc2cccc(Cl)c2Cl)CCC1=O		76 to 100%
Cc1noc(CC2(C)C(=O)NCCN2C(=O)c2cc(C(C)(C)C)sc2NC(=O)Nc2ccc(F)c(Cl)c2Cl)n1 (stereo not given)	< 5 µM	
CN1CCN(C(=O)c2cc(C(C)(C)C)sc2NC(=O)Nc2cccc(Cl)c2Cl)C(C)(CC(N)=O)C1=O (stereo not given)	< 5 µM	
CC(C)(C)c1cc(C(=O)N2CCNC(=O)C2)c(NC(=O)Nc2cccc3ccccc23)s1		76 to 100%
CN(C)CCN1CCN(C(=O)c2cc(C(C)(C)C)sc2NC(=O)Nc2cccnc2Cl)CCC1=O	< 5 µM	
CC(C)(C)c1cc(C(=O)N2CCNC(=O)C2(C)C)c(NC(=O)Nc2cc(Cl)cc(Cl)c2)s1	< 5 µM	
CON(C)C(=O)CN1CCN(C(=O)c2cc(C(C)(C)C)sc2NC(=O)Nc2cccc(Cl)c2Cl)C(C)(C)C1=O	< 5 µM	
CC(C)(C)c1cc(C(=O)N2CCN(S(C)(=O)=O)CC2)c(NC(=O)Nc2cccc(Cl)c2Cl)s1	< 5 µM	
CC(C)(C)c1cc(C(=O)N2CCNCC2)c(NC(=O)Nc2cccc(Cl)c2Cl)s1	< 5 µM	
CC(C)(C)c1cc(NC(=O)Nc2cccc(Cl)c2Cl)c(C(=O)N2CCNC(=O)C2(C)C)o1	< 5 µM	
Cc1ccccc1NC(=O)Nc1sc(C(C)(C)C)cc1C(=O)N1CCNC(=O)CC1	< 5 µM	
CC(C)(C)c1cc(C(=O)N2CCNC(=O)CC2)c(NC(=O)Nc2cnc(O)c3ccccc23)s1		26 to 50%
CC(C)(C)c1cc(C(=O)N2CCNC(=O)[C@@H]2CCc2ccccc2)c(NC(=O)Nc2cccc(Cl)c2Cl)s1	< 5 µM	
CC(C)(C)c1cc(C(=O)N2CCNC(=O)CC2)c(NC(=O)Nc2ccc(F)c(F)c2Cl)s1	< 5 µM	
CN(C)CCNC(=O)CN1CCN(C(=O)c2cc(C(C)(C)C)sc2NC(=O)Nc2cccc(Cl)c2Cl)CC1	< 5 µM	
CC(C)(C)c1cc(C(=O)N2CCNC(=O)CC2)c(NC(=O)NC2CCNCC2)s1		0 to 25%
CC1(C)OCC(CN2CCN(C(=O)c3cc(C(C)(C)C)sc3NC(=O)Nc3cccc(Cl)c3Cl)CCC2=O)O1 (stereo not given)		76 to 100%
CC(=O)N1CCN(C(=O)c2cc(C(C)(C)C)sc2NC(=O)Nc2cccc(Cl)c2Cl)CC1	< 5 µM	
CC(C)(C)c1cc(C(=O)N2CCNC(=O)C2(C)C)c(NC(=O)Nc2ccc(Cl)cc2Cl)s1	< 5 µM	
CC(C)c1ccccc1NC(=O)Nc1sc(C(C)(C)C)cc1C(=O)N1CCNC(=O)CC1	< 5 µM	
CC(C)(C)c1cc(C(=O)N2CCNS(=O)(=O)CC2)c(NC(=O)Nc2ccc3ocnc3c2)s1		76 to 100%
COc1cccc(NC(=O)Nc2sc(C(C)(C)C)cc2C(=O)N2CCC(=O)N(CCN(C)C)CC2)c1Cl	< 5 µM	

SMILES	IC50	inhibition
CC(C)(C)c1cc(C(=O)N2CCNC(=O)C(N)C2)c(NC(=O)Nc2cccc(Cl)c2Cl)s1 (stereo not given)		76 to 100%
CC(C)(C)c1cc(C(=O)N2CCNS(=O)(=O)CC2)c(NC(=O)Nc2ccc(F)c(Cl)c2Cl)s1	< 5 µM	
CCC1(C)C(=O)N(CC(=O)NCCN(C)C)CCN1C(=O)c1sc(C(C)(C)C)cc1NC(=O)Nc1cccc(Cl)c1Cl (stereo not given)	< 5 µM	
CN(C)CCNC(=O)CN1CCN(C(=O)c2sc(C(C)(C)C)cc2NC(=O)Nc2ccc(F)c(F)c2Cl)C(C)(C)C1=O	< 5 µM	
CC(C)(C)c1cc(NC(=O)Nc2ccc(F)c(Cl)c2Cl)c(C(=O)N2CCNS(=O)(=O)CC2)[nH]1	< 5 µM	
COC(=O)CN1CCN(C(=O)c2cc(C(C)(C)C)sc2NC(=O)Nc2cccc(Cl)c2Cl)C(C)(C)C1=O	< 5 µM	
CN(C)CCN1CCN(C(=O)c2cc(C(C)(C)C)sc2NC(=O)Nc2ccc(F)c(F)c2Cl)C(C)(C)C1=O	< 5 µM	
CC(C)(C)c1cc(C(=O)N2CCNC(=O)CC2)c(NC(=O)Nc2ccc(C#N)c(Cl)c2)s1		76 to 100%
CC(C)(C)c1cc(C(=O)N2CCNC(=O)C23CCC3)c(NC(=O)Nc2ccc(F)c(Cl)c2Cl)s1	< 5 µM	
Cc1cccc(Cl)c1NC(=O)Nc1cc(C(C)(C)C)sc1C(=O)N1CCNC(=O)C1(C)C	< 5 µM	
CNC(=O)Nc1cc(C(C)(C)C)sc1C(=O)N1CCNC(=O)CC1		0 to 25%
CC(C)(C)c1cc(C(=O)N2CCNC(=O)CC2)c(NC(=O)Nc2ccccc2OC(F)(F)F)s1	< 5 µM	
CC(C)(C)c1cc(NC(=O)Nc2ccc(F)c(F)c2Cl)c(C(=O)N2CCNC(=O)C2(C)CCO)s1 (stereo not given)	< 5 µM	
COc1ccccc1NC(=O)Nc1sc(C(C)(C)C)cc1C(=O)N1CCN(CCN(C)C)C(=O)C1(C)C	< 5 µM	
COC(=O)CC1(C)C(=O)NCCN1C(=O)c1sc(C(C)(C)C)cc1NC(=O)Nc1ccc(F)c(F)c1Cl (stereo not given)	< 5 µM	
CN(C)CCN1CCN(C(=O)c2cc(C(C)(C)C)sc2NC(=O)Nc2ccccc2C(F)(F)F)C(C)(C)C1=O	< 5 µM	
CC(C)(C)c1cc(NC(=O)Nc2cccc(Cl)c2Cl)c(C(=O)N2CCNC(=O)C2(C)C)s1	< 5 µM	
COc1ccc(Cl)c(NC(=O)Nc2cc(C(C)(C)C)sc2C(=O)N2CCNC(=O)C2(C)C)c1	< 5 µM	
CC(C)(C)c1cc(C(=O)N2CCNC(=O)C2(C)C)c(NC(=O)Nc2cccc3ccccc23)s1	< 5 µM	
CC(C)(C)c1cc(C(=O)N2CCN(CC(=O)NCC(F)(F)F)C(=O)C2(C)C)c(NC(=O)Nc2cccc(Cl)c2Cl)s1	< 5 µM	
CN(C)CCN1CCN(C(=O)c2cc(C(C)(C)C)sc2NC(=O)Nc2ccccc2Cl)CCC1=O	< 5 µM	
CC(C)(C)c1cc(C(=O)N[C@@H]2CC(=O)NC2=O)c(NC(=O)Nc2ccc(Cl)cc2)s1		76 to 100%
CCN(CC)CCNC(=O)CN1CCN(C(=O)c2cc(C(C)(C)C)sc2NC(=O)Nc2cccc(Cl)c2Cl)C(C)(C)C1=O	< 5 µM	
COc1c(Cl)cccc1NC(=O)Nc1sc(C(C)(C)C)cc1C(=O)N1CCNC(=O)C1(C)CCO (stereo not given)	< 5 µM	
CC(C)(C)c1cc(C(=O)N2CC(=O)NC(CO)C2)c(NC(=O)Nc2cccc(Cl)c2Cl)s1 (stereo not given)	< 5 µM	
